The source of these data is PubChem BioAssay AID179 (DTP/NCI, 2004).

Active and inactive are the calls of the source.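 Rule for the calls: active = compounds giving half or more protection of infected cells from virus-caused growth loss, again on retest; inactive = the rest.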 Where a SMILES comes first, the peptide text is derived from it. The star is where a group is joined. Cbz = O=C(OCc1ccccc1)*; OtBu = CC(C)(C)O*

For this experiment, the system named is CEM cells HIV-1 protection, formazan growth assay. Put plainly: NCI AIDS Antiviral Assay. Conditions: for IC50: measured here: growth of uninfected CEM cells. An outline of the steps: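 Protection of CEM cells against HIV-1 was scored from cell growth (soluble formazan) across five concentrations, with parallel uninfected cells. Lack of protection may reflect toxicity.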

Turning to `Cn1cnc([N+](=O)[O-])c1Sc1nccn1-c1ccccc1`, the EC50 was above 832 µM and the IC50 was 9.33 µM.
For `CCOC(=O)Nc1cc2c(c(N)n1)N=C(c1ccc3ccccc3c1)CN2` the same measures were above 200 µM and 0.309 µM.
The like results for `c1ccc(N=C2C(=Nc3ccccc3)N(C3CCCCC3)C(=NC3CCCCC3)N2c2ccccc2)cc1` were, in that order, above 200 µM and above 200 µM.
Consider `O=C(O)C(Oc1ccc2cc(Br)ccc2c1)C(=O)O`, for which the outcome was inactive.
As for `C=C1CN(S(=O)(=O)c2ccc(C)cc2)CCCN(Cc2ccc[nH]2)CCCN(S(=O)(=O)c2ccc(C)cc2)C1`, the EC50 was above 200 µM and the IC50 amounted to 14.5 µM.
Take `CNCc1cc(OC)ccc1-c1ccc(OC)c(OC)c1OC`: the EC50 was above 708 µM and the IC50 was 105 µM.
For `COC(CN(C(C)=O)C1CCC2(SCCS2)c2[nH]c3ccccc3c21)OC` (stereo unspecified) the same measures were above 200 µM and 123 µM.
`Cn1c(=O)c2nc(-c3ccc(Cl)cc3)oc2n(C)c1=O`: the EC50 is above 9.33 µM and the IC50 is above 9.33 µM.
Regarding `COC(=O)[C@@H]1Cc2c3n(c4ccccc24)C(=O)CCC3N1C` (stereo partly specified), the EC50 was above 417 µM and the IC50 turned out to be 295 µM.
`COc1ccc(CN2COc3c(cc(Cl)c4cccnc34)C2)cc1`: the EC50 was above 200 µM and the half-inhibitory concentration (IC50) stood at 1.55 µM.
For `O=[N+]([O-])c1ccc(Sc2c3ccccc3nc3ccccc23)nc1` the same measures were above 200 µM and 5.25 µM.
Regarding `Nc1nc(Cl)cc(NCCC2(CO)CCC2)n1`, the EC50 was above 200 µM and the IC50 was above 200 µM.
Consider `COc1ccc(CCNC(=S)N/C=C(\C#N)S(=O)(=O)c2ccc(C)cc2)cc1OC`, for which the EC50 was above 200 µM and the IC50 is above 200 µM.
Take `CC(C)=CCC[C@@H](C)C1=C(O)C(Nc2ccccc2Cl)=C(C)C(=O)C1=O`: the EC50 was above 200 µM and the IC50 came out at 6.31 µM.
Regarding `C=C(C)C(OC(C)=O)C(OCC)c1c(OC)ccc2ccc(=O)oc12` (stereo unspecified), the EC50 was above 50.1 µM and the IC50 was above 50.1 µM.
Consider `O=c1ccn2n1Cc1ccccc1C2`, for which the EC50 was above 200 µM and the IC50 is above 200 µM.
Take `COc1cc(OC)cc(Oc2nc3c(N)cc(C(F)(F)F)cc3nc2-c2ccccc2)c1`: the EC50 is above 200 µM and the half-inhibitory concentration (IC50) was above 200 µM.
Regarding `CC(=O)N(C)n1cn[n+](CC(=O)OC(C)(C)C)c1`, the EC50 was above 200 µM and the IC50 is above 200 µM.
With `CC(C)CC(NC(=O)C(Cc1ccccc1)NC(=O)C1CCCN1C(=O)OCc1ccccc1)C(=O)OC(C)(C)C` (stereo not drawn) (Cbz-Pro-Phe-Leu-OtBu; configuration not given here), the EC50 is above 6.61 µM and the IC50 is above 6.61 µM.
On to `O=C1c2c(O)ccc([N+](=O)[O-])c2C(=O)c2c(O)ccc(Nc3cccc(CO)c3)c21`, for which the EC50 was above 200 µM and the half-maximal inhibitory concentration (IC50) was found to be 0.724 µM.
Consider `N#Cc1c2n(c(=S)n(-c3ccccc3)c1=N)CCCCCCC2`, for which the EC50 was above 200 µM and the IC50 was found to be 10.7 µM.
Consider `O=C1C=C(c2[nH]c3ccccc3c2C2=CC(=O)c3ccccc3C2=O)C(=O)c2ccccc21`, for which the result was inactive.
Take `CSC1=N/C(=C\c2ccc(Cl)cc2)C(=O)N1CN1CCCCC1`: the EC50 was above 200 µM and the IC50 was above 200 µM.
For the molecule `O=S(=O)(O)c1ccc(N=Nc2ccc(O)cc2O)cc1`, the EC50 was above 200 µM and the IC50 is 112 µM.
The like results for `CN(/N=C\c1ccc2ccccc2c1)C1=NCCCCN1` were, in that order, above 200 µM and 28.8 µM.
Regarding `Cc1nc(C)c(N2CCN(CN)CC2)c(=O)[nH]1`, the EC50 was above 200 µM and the IC50 was above 200 µM.
As for `OCCCNCC(O)c1ccc(OCc2ccccc2)c(OCc2ccccc2)c1` (stereo unspecified), the EC50 is above 200 µM and the IC50 was 5.13 µM.
For `CCOC(=O)c1sc(SSc2sc(C(=O)OCC)c(C)c2[N+](=O)[O-])c([N+](=O)[O-])c1C` the same measures were above 200 µM and 138 µM.
The like results for `Nc1ccc(C(=O)NN2C(=O)C(Cl)C2c2cccc(O)c2)cc1` (stereo unspecified) were, in that order, above 200 µM and 9.55 µM.
The like results for `COc1cc(C(Cc2ccccc2)NC(C)=O)oc(=O)c1` (stereo unspecified) were, in that order, above 871 µM and 155 µM.
On to `CC(=O)OCC1OC(Nc2nncs2)C(OC(C)=O)C1OC(C)=O` (stereo unspecified), for which the EC50 is above 692 µM and the IC50 is 562 µM.
`COc1cccc(/C=C2\CCCc3ccccc3C2=O)c1`: the EC50 was above 200 µM and the IC50 worked out at 26.3 µM.
For `CC1CCC/C1=C(/I)C(=O)c1ccccc1` (stereo unspecified) the same measures were above 200 µM and 58.9 µM.
For `O=C1C=C(Nc2ccc(S(=O)(=O)Nc3nccs3)cc2)c2ccccc2C1=O` the same measures were above 316 µM and 38.9 µM.
Regarding `Clc1cc(N/N=C(\c2ccccc2)c2ccccn2)ncn1`, the EC50 was above 0.2 µM and the IC50 turned out to be 0.0631 µM.
As for `O=C1c2ccccc2C2CCC1c1ccccc12` (stereo unspecified), the EC50 is above 32.4 µM and the IC50 came to 26.3 µM.
For `CSc1nc(Nc2ccccc2Cl)c2c(N)nn(C)c2n1` the same measures were above 200 µM and above 200 µM.
Consider `O=c1[nH][nH]c(=O)c2c1[nH]c(=S)n2-c1ccccc1`, for which the EC50 is above 200 µM and the IC50 was above 200 µM.
Regarding `CCOC(=O)c1cn(CC)c2ccc3ccsc3c2c1=O`, the result was inactive.
Regarding `COC(=O)NN=C1C(C)(C)C(=O)C1(C)C`, the EC50 was above 85.1 µM and the IC50 was above 85.1 µM.
Turning to `Oc1ccc([C@H]2c3c(O)cc(O)cc3C3c4c(cc(O)cc4[C@@H]2[C@H]2c4cc(O)cc5c4C(c4cc(O)cc(O)c4[C@@H]2c2ccc(O)cc2)[C@@H](c2ccc(O)cc2)O5)O[C@@H]3c2ccc(O)cc2)cc1` (stereo partly specified), the EC50 was above 100 µM and the concentration for half-maximal inhibition (IC50) worked out at 13.8 µM.
In the case of `NC(=O)C(CSSCC(NC(=O)OCc1ccccc1)C(N)=O)NC(=O)OCc1ccccc1` (stereo unspecified), the EC50 is above 200 µM and the IC50 is 18.2 µM.
The like results for `c1ccc2[nH]c(-c3nc4ccccc4o3)nc2c1` were, in that order, above 15.8 µM and above 15.8 µM.
Take `CCCCCCCCCCCCCC(=O)CC(=O)c1c(O)cccc1O`: the result was inactive.
Consider `CC1c2c(cc(=O)[nH]c2O)C(=O)N1Cc1ccccc1` (stereo unspecified), for which the EC50 was above 347 µM and the IC50 was 302 µM.
On to `COc1cc(NC=O)c(OC)cc1Cl`, for which the result was inactive.
As for `CC1=CC(Nc2ccc(S(=O)(=O)c3ccc(NC4=NCCNC(C)=C4)cc3)cc2)=NCCN1`, the EC50 is above 200 µM and the IC50 was above 200 µM.
For `CC(C)(C)[Si](C)(C)OCCOCn1cc(F)c(=O)[nH]c1=O`, the EC50 was above 200 µM and the IC50 is above 200 µM.
Consider `Cc1c2ccccc2nc(CSCC(O)CO)[n+]1[O-]` (stereo unspecified), for which the EC50 was above 200 µM and the IC50 is above 200 µM.
`N#Cc1cc2ccncc2c2ccccc12`: the EC50 was above 33.1 µM and the IC50 stood at 24 µM.
For `CN=Cc1ccccc1O.CN=Cc1ccccc1O.[Cu+2]` the same measures were above 200 µM and 11.2 µM.
For `S=C1Cc2[nH]c(=S)sc(=S)c2C(=S)N1` the same measures were above 64.6 µM and 57.5 µM.
For `CS(=O)(=O)OCCCS(=O)(=O)O`, the EC50 was above 200 µM and the 50% inhibitory concentration (IC50) was above 200 µM.
